# Laboratory results from patent US20050259249A1, “Nonlinear optical detection of fast cellular electrical activity” (priority 2004, published 2005).
# Entries after “also recorded” stand apart in the source; their conditions may differ. Where a name gives a salt, the structure may show the parent alone.
# Experiments:
# [1] = test system: neurons in the hippocampal region; assay: SHG line scan recording of membrane potential in dye-filled neurons of acute brain slices; assay type: cell-based, rat; conditions: neurons filled with dye via patch pipette, ~1060 nm/~300 fs laser pulses, voltage steps at the soma
# Excerpt: SHG microscopy is emerging as a powerful new method to optically record membrane potential changes of active neurons. […] This technique has been applied to acute rat brain slices by patch clamping and filling neurons in the hippocampal region with the dye FM4-64. […] The SHG signal emanates from the plasma membrane with little background from intra- or extracellular regions. […] Additionally, it has been shown that a backward propagating SHG signal exists (Forward/Backward ratio ˜6).
# Repeated line scanning of the SHG signal was used to optically record action potentials (signal to noise ratio (S/N) ˜5-8 by temporal averaging of ˜50 line scans) on somatic membranes. Voltage steps were applied at the soma and the SHG response was recorded in the dendritic arbor >100 μm deep in slice. Dendritic spines were clearly visible, possibly making the recording of membrane potential transients from these compartments feasible. […] The line scan averaging necessary to increase S/N was accomplished in minutes. […] In addition to patch clamping, it was shown that extracellular micropipette pressure injection of the dye into hippocampal cell layers leads to SHG labeling of many tens of neurons.
# [2] = electrochromic mechanism; from Moreaux et al., Optics Letters 28:625-627 (2003); cited from earlier work
# cultured Aplysia neurons = assay: SHG line scan recording of Vm in dye-stained cultured Aplysia neurons under voltage clamp; assay type: cell-based, Aplysia californica; conditions: 8 μM dye extracellular perfusion, 940 nm excitation, two-electrode voltage clamp
# Experimental: Abdominal and cerebral ganglia from up to 15 different 5-10 g Aplysia californica were dissociated and cultured with like ganglia (i.e., abdominal with abdominal, cerebral with cerebral) according to Banker and Goslin (i.e., Banker et al., Culturing Nerve Cells, 2nd Edition, Cambridge, Mass.: MIT Press (1998), which is hereby incorporated by reference in its entirety). The cultures were grown in MatTek glass bottom dishes (MatTek Corp., Ashland, Mass.) at 17-18 C. For recordings, 4 to 14 day old cultures were used.
# For staining and imaging, 4-[[4-(dihexylamino)phenyl]]ethynyl]-1-(4-sulfobutyl)pyridinium, inner salt (“DHPESBP”) (“Molecule B” from Moreaux et al., “Electro-Optic Response of Second-Harmonic Generation Membrane Potential Sensors,” Optics Letters 28:625-627 (2003), which is hereby incorporated by reference in its entirety) was used, because of its proven fast (<150 μs) response to Vm. SHG from giant unilamellar vesicles stained with this molecule was sensitive to Vm on fast time scales through an electrochromic (rather than reorientational) mechanism (Moreaux et al., “Electro-Optic Response of Second-Harmonic Generation Membrane Potential Sensors,” Optics Letters 28:625-627 (2003), which is hereby incorporated by reference in its entirety). […]
# mossy fibers = assay: Pharmacology: SHG from mossy fibers of acute hippocampal slices after cytoskeleton-depolymerizing drugs; assay type: cell-based, rat; conditions: for Effect on SHG from mossy fibers compared to the control: cytochalasin D 1 μM or nocodazole 25 μM, solvent control
# Excerpt: SHG and TPF microscopy were simultaneously performed on either a Bio-Rad MRC 1024 or Radiance scan head on a modified inverted Olympus IX-70 microscope (FIG. 1). The excitation source was a mode-locked Ti:Sapphire laser (˜100 fs pulses at 80 MHz) (Spectra-Physics) pumped by a 5 W solid state Millennia laser (Spectra-Physics). The laser polarization was controlled via a Berek polarization compensator (New Focus, San Jose, Calif.) and the beam focused into the sample with one of the following (overfilled back aperture) objectives: Zeiss C-Apochromat 10×/0.45 NA, Olympus UApo 20×/0.7 NA, Zeiss Fluar 20×/0.75 NA, Olympus UApo 40×/1.15 NA, Zeiss Fluar 40×/1.3 NA. The resultant SHG was collected in the transmitted (forward) direction with an Olympus XLUMPlanFl 20×/0.95 NA objective, while the TPF was epi-collected through the excitation objective. A combination of dichroic mirrors, band-pass and blue-glass filters (Chroma Technology, Brattleboro, Vt.) and polarization analyzers (Newport) separated the signals for detection with Bialkali photo-multiplier tubes (PMTs) (Hammamatsu). The excitation wavelength, average excitation intensity (<I>) at the sample, and two-photon 1/e radial Gaussian beam waist approximation (w) (Richards et al., Proc Royal Soc London Series A-Mathematical Physical Sciences 253:358-379 (1959), which is hereby incorporated by reference in its entirety) are given with the figures. The average power at the sample is (<I>·π·w^2). The images are temporally summed over several scans at dwell times ˜10-100 μs/μm^2. Confocal imaging was performed on the same microscope, but using an argon-krypton laser for excitation. […]
# The slices were transferred from the static incubation bath to a static ASCF bath on the microscope stage. […] The average intensities from the three groups were calculated and compared for statistical significance with a T-test.
compound,measurement,setting,value
"CCN(CC)c1ccc(C=CC=CC=Cc2cc[n+](CCC[N+](CC)(CC)CC)cc2)cc1.[Br-].[Br-] [FM4-64, N-(3-triethylammoniumpropyl)-4-(6-(4-(diethylamino)phenyl)hexatrienyl)pyridinium dibromide]",SHG signal linear response to membrane potential,[1],~7.7 %/100 mV
"CCCCCCN(CCCCCC)c1ccc(C#Cc2cc[n+](CCCCS(=O)(=O)[O-])cc2)cc1 [DHPESBP, 4-[[4-(dihexylamino)phenyl]ethynyl]-1-(4-sulfobutyl)pyridinium, inner salt]",Response time of SHG to Vm,[2],< 150 μs
same,SHG signal change as a function of change in membrane potential (linear response),cultured Aplysia neurons,~6 %/100 mV
C=C1[C@@H](C)[C@H]2[C@H](Cc3ccccc3)NC(=O)[C@]23[C@H](OC(C)=O)/C=C/[C@@](C)(O)C(=O)[C@@H](C)C/C=C/[C@H]3[C@@H]1O [Cytochalasin D],Effect on SHG from mossy fibers compared to the control,mossy fibers,did not affect the SHG; also recorded: no significant effect
"COC(=O)Nc1nc2ccc(C(=O)c3cccs3)cc2[nH]1 [nocodazole, Nocodazole]","SHG from the mossy fibers after addition of the drug, relative to its original value","mossy fibers; continuous treatment, nocodazole 25 μM, imaged for 70 min, 34° C., 4 slices",~39%
same,Effect on SHG from mossy fibers compared to the control,mossy fibers,drastic
